Source: ChEMBL document CHEMBL5137114, “Discovery of IHMT-MST1-58 as a Novel, Potent, and Selective MST1 Inhibitor for the Treatment of Type 1/2 Diabetes” (J Med Chem, 2022)
Active and inactive are the calls of the source. The calls are words filed in the database; no cut-off is given here.

Key:
[1] = target: T1, Serine/threonine-protein kinase Nek3 (Homo sapiens, UniProt P51956); test: Inhibition of recombinant full length N-terminal GST -tagged human NEK3 expressed in baculovirus expression system using S2 as substrate incubated for 2 hrs by HTRF assay
T1 sequence (P51956 whole entry): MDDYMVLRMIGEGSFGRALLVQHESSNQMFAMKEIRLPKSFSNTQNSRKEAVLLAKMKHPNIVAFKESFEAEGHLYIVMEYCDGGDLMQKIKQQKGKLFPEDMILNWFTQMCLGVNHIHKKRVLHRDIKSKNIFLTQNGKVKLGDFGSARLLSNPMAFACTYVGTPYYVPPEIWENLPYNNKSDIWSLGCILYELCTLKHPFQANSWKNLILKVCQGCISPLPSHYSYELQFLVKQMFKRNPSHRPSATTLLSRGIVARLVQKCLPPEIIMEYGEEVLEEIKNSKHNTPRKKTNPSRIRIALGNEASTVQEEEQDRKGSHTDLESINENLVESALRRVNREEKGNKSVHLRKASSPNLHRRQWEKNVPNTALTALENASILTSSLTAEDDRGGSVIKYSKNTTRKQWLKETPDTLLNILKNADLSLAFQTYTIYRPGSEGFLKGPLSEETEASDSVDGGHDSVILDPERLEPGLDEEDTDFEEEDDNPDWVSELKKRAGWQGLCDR

[2] = Clearance in mouse plasma at 50 mg/kg, po measured up to 24 hrs by LC-MS/MS analysis; assay type: ADME, organism-based
[3] = target: T2, Serine/threonine-protein kinase Nek3 (Homo sapiens) (UniProt P51956); test: Binding affinity to wild-type human full length NEK3 (M1 to R506 residues) expressed in mammalian expression system at 1 uM by Kinomescan method
T2 sequence (whole entry): T1 sequence (P51956 whole entry)

RAW264.7 = test: Inhibition of MST1 in mouse RAW264.7 cells assessed as reduction in H2O2-stimulated MST1/MST2 autophosphorylation at T183/T180 residues preincubated for 2 hrs followed by H2O2 addition for 30 mins by Western blotting analysis; assay type: cell-based; conditions: dose 0.1-10 µM, time 2.5 hrs, DDE = dose-dependent effect
[4] = system: Serine/threonine-protein kinase 4 (Rattus norvegicus); test: Inhibition of TNF-alpha-stimulated MST1 phosphorylation in rat INS1 cells incubated for 12 hrs by Western blotting analysis; conditions: dose 0.1-10 µM, DDE = dose-dependent effect
[5] = system: Serine/threonine-protein kinase 4 (Rattus norvegicus); test: Inhibition of TNF-alpha-stimulated MST1 in rat INS1 cells assessed as reduction in MOB1 autophosphorylation incubated for 12 hrs by Western blotting analysis; conditions: dose 0.1-10 µM, DDE = dose-dependent effect
Mus musculus [6] = test: Antidiabetic activity in high fat diet-STZ-induced C57BL/6J mouse model of type 2 diabetes assessed as reduction in HbA1c level at 50 mg/kg, po qd (reference value: 8.6 %); assay type: functional; set-up: scale not given: the % may be the effect or the level left
Mus musculus [7] = test: Antidiabetic activity against high fat diet-STZ-induced C57BL/6J mouse model of type 2 diabetes assessed as improvement in food intake at 50 mg/kg, po qd administered upto 106 days in presence of metformin; assay type: functional, organism-based; conditions: time <= 106.0 day
[8] = Half life in mouse at 10 mg/kg, po measured up to 24 hrs by LC-MS/MS analysis; assay type: ADME, organism-based; conditions: in vivo
[9] = Half life in Beagle dog at 1 mg/kg, iv measured up to 12 hrs by LC-MS/MS analysis; assay type: ADME, organism-based, Canis lupus familiaris; conditions: in vivo
[10] = system: Serine/threonine-protein kinase 4 (Rattus norvegicus); test: Inhibition of TNF-alpha-stimulated MST1 phosphorylation in rat RIN-m5F cells incubated for 12 hrs by Western blotting analysis; conditions: dose 0.1-10 µM, DDE = dose-dependent effect
Mus musculus [11] = test: Antidiabetic activity against multi low dose STZ-induced C57BL/6J mouse model of type 1 diabetes assessed as food intake at 50 mg/kg, po administered for 78 to 79 days (reference value: 4.7 g/day); assay type: functional; conditions: time 78-79 day
[12] = Oral bioavailability in Sprague-Dawley rat at 10 mg/kg measured up to 24 hrs by LC-MS/MS analysis; assay type: ADME, organism-based; conditions: in vivo
[13] = system: Serine/threonine-protein kinase 4 (Rattus norvegicus); test: Inhibition of IL-1beta-stimulated MST1 in rat INS1 cells assessed as reduction in MOB1 autophosphorylation incubated for 12 hrs by Western blotting analysis; conditions: dose 0.1-10 µM, DDE = dose-dependent effect
[14] = AUC (0 to t) in Sprague-Dawley rat at 1 mg/kg, iv measured up to 12 hrs by LC-MS/MS analysis; assay type: ADME, organism-based; set-up: dose 1 mg/kg, time < 12 hrs, route iv; conditions: in vivo
Mus musculus [15] = test: Antidiabetic activity against 8 hrs fasted multi low dose STZ-induced C57BL/6J mouse model of type 1 diabetes assessed as decrease in fasting blood glucose level at 50 mg/kg, po administered for 77 days in presence of metformin (reference value: 22.3 mmol/L); assay type: functional; conditions: time 77 day
[16] = AUC (0 to t) in mouse Pancreas at 50 mg/kg, po measured up to 24 hrs by LC-MS/MS analysis; assay type: ADME, organism-based; set-up: time < 24 hrs, dose 50 mg/kg, route po
[17] = target: T3, Serine/threonine-protein kinase 3 (Homo sapiens) (UniProt Q13188); test: Inhibition of recombinant full length N-terminal GST -tagged human MST2 expressed in baculovirus infected Sf9 insect cells using KKSRGDYMTMQIG as substrate incubated for 1 hr in presence of ATP by ADP-Glo luminescent assay relative to control; conditions: concentration not given here
T3 sequence (whole entry): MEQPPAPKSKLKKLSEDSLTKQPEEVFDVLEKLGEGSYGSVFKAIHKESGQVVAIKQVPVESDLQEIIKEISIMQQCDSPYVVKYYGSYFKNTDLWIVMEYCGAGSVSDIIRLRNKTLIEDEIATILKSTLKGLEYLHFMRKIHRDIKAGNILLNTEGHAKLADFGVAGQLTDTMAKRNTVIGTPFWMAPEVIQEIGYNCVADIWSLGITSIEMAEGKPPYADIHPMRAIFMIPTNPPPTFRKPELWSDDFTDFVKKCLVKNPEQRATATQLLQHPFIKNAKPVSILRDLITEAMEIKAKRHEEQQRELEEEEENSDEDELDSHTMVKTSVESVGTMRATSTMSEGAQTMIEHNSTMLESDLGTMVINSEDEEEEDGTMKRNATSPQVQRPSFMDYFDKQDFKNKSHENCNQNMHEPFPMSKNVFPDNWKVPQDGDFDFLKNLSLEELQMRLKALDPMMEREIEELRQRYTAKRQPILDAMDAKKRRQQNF

Mus musculus [18] = test: Antidiabetic activity in 12 to 14 hrs fasted high fat diet-STZ-induced C57BL/6J mouse model of type 2 diabetes assessed as reduction on blood glucose at 50 mg/kg, po qd pretreated with compound followed by glucose challenge measured upto 180 mins by IPGTT assay; assay type: functional, organism-based
[19] = target: T4, Serine/threonine-protein kinase 3 (Homo sapiens, UniProt Q13188); test: Binding affinity to wild-type human partial length MST2 (D17 to E318 residues) expressed in bacterial expression system by Kinomescan method
T4 sequence (Q13188 whole entry): T3 sequence (whole entry)

[20] = system: Serine/threonine-protein kinase 4 (Rattus norvegicus); test: Inhibition of INF-gamma-stimulated MST1 in rat RIN-m5F cells assessed as reduction in MOB1 autophosphorylation incubated for 12 hrs by Western blotting analysis; conditions: dose 0.1-10 µM, DDE = dose-dependent effect

## Cc1ccccc1C1C(=O)N(C)c2cnc(Nc3ccc(S(N)(=O)=O)cc3)nc2N1C (stereo unspecified)
[1]
  IC50: > 10000 nM
[2]
  CL/F: 62.2 mL/min/kg
[3]
  Activity: Active
RAW264.7
  inhibition: Dde
[4]
  inhibition: Dde
[5]
  inhibition: Dde
Mus musculus [6]
  Activity: 7.9%
Mus musculus [7]
  Activity: Active
[8]
  half-life: 1.81 h
[9]
  half-life: 6.47 h
[10]
  inhibition: Dde
Mus musculus [11]
  Activity: 4 g/day
[12]
  F: 73.3%
[13]
  inhibition: Dde
[14]
  AUCt: 2553 ng·h/mL
Mus musculus [15]
  Activity: 8.9 mmol/L
[16]
  AUC(0-t) at 24 h: 51400 ng·h/mL
[17]
  inhibition: 52%
Mus musculus [18]
  Activity: Active
[19]
  Kd: 2700 nM
[20]
  inhibition: Dde
